Test system: KM mice
Experiment: Test for drug-induced disappearance of righting reflex in mice
Assay type: in vivo
Conditions: single rapid bolus via tail vein
Source text: In anesthetic drug experiments, latency generally refers to the time from the start of administration to the loss of consciousness of the subject. The shorter latency is preferred, indicating a rapid onset of action after administration. The duration of anesthesia generally refers to the duration of time from the loss of consciousness to the restoration of consciousness of the subject. The duration of the drug will vary from animal model to animal species. Too long anesthesia may produce adverse cardiovascular and respiratory responses, such as adverse neurological effects to the subject, including sleepiness and dizziness; meanwhile, too short duration of anesthesia may affect the anesthesia effect, causing problems such as increase of anesthesia dosage during the operation.
KM mice (female, 18-25 g) were randomly grouped and subjected to a single administration by rapid bolus via the tail vein. The latency and duration of disappearance of righting reflex in the mice were recorded.

Row | Structure (SMILES) | Duration (30 mg/kg) [min] | Latency (30 mg/kg) [min] | Duration (60 mg/kg) [min] | Latency (60 mg/kg) [min]
1 | COC(=O)CC[C@@H]1N=C(c2ccccc2Cl)c2cc(Cl)ccc2-n2c(S)nnc21 [Compound 2, methyl (S)-3-(8-chloro-6-(2-chlorophenyl)-1-mercapto-4H-benzo[f][1,2,4]triazolo[4,3-a][1,4]diazepin-4-yl)propionate] | 5.27 | 0.58 |  | 
2 | COC(=O)CC[C@@H]1N=C(c2ccccn2)c2cc(Br)ccc2-n2c(S)nnc21 [Compound 3, methyl (S)-3-(8-bromo-6-(pyridin-2-yl)-1-mercapto-4H-benzo[f][1,2,4]triazolo[4,3-a][1,4]diazepin-4-yl)propionate] | 7.37 | 0.48 |  | 
3 | COC(=O)CC[C@@H]1N=C(c2ccccc2)c2ccccc2-n2c(S)nnc21 [Compound 5, methyl (S)-3-(6-phenyl-1-mercapto-4H-benzo[f][1,2,4]triazolo[4,3-a][1,4]diazepin-4-yl)propionate] | 13.27 | 1.11 |  | 
4 | COC(=O)CC[C@@H]1N=C(c2ccc(F)cc2)c2ccccc2-n2c(S)nnc21 [Compound 6, methyl (S)-3-(6-(4-fluorophenyl)-1-mercapto-4H-benzo[f][1,2,4]triazolo[4,3-a][1,4]diazepin-4-yl)propionate] | 9.93 | 0.59 |  | 
5 | COC(=O)CC[C@@H]1N=C(c2ccccc2)c2cc(Cl)ccc2-n2c(S)nnc21 [Compound 7, methyl (S)-3-(8-chloro-6-phenyl-1-mercapto-4H-benzo[f][1,2,4]triazolo[4,3-a][1,4]diazepin-4-yl)propionate] | 12.26 | 1.14 |  | 
6 | COC(=O)CC[C@@H]1N=C(c2ccccc2F)c2cc(Cl)ccc2-n2c(SC)nnc21 [Compound 8, methyl (S)-3-(8-chloro-6-(2-fluorophenyl)-1-(methylthio)-4H-benzo[f][1,2,4]triazolo[4,3-a][1,4]diazepin-4-yl)propionate] | 8.35 | 0.36 |  | 
7 | COC(=O)CC[C@@H]1N=C(c2ccccc2F)c2cc(Br)ccc2-n2c(SC)nnc21 [Compound 9, methyl (S)-3-(8-bromo-6-(2-fluorophenyl)-1-(methylthio)-4H-benzo[f][1,2,4]triazolo[4,3-a][1,4]diazepin-4-yl)propionate] | 12.12 | 0.84 |  | 
8 | CCSc1nnc2n1-c1ccc(Cl)cc1C(c1ccccc1F)=N[C@H]2CCC(=O)OC [Compound 11, methyl (S)-3-(8-chloro-6-(2-fluorophenyl)-1-(ethylthio)-4H-benzo[f][1,2,4]triazolo[4,3-a][1,4]diazepin-4-yl)propionate] | 6.37 | 0.77 | 7.98 | 0.83
9 | CCSc1nnc2n1-c1ccc(Br)cc1C(c1ccccc1F)=N[C@H]2CCC(=O)OC [Compound 12, methyl (S)-3-(8-bromo-6-(2-fluorophenyl)-1-(ethylthio)-4H-benzo[f][1,2,4]triazolo[4,3-a][1,4]diazepin-4-yl)propionate] | 17.21 | 0.74 |  | 
10 | CCCSc1nnc2n1-c1ccc(Cl)cc1C(c1ccccc1F)=N[C@H]2CCC(=O)OC [Compound 14, methyl (S)-3-(8-chloro-6-(2-fluorophenyl)-1-(propylthio)-4H-benzo[f][1,2,4]triazolo[4,3-a][1,4]diazepin-4-yl)propionate] | 9.12 | 0.78 |  | 
11 | CCCSc1nnc2n1-c1ccc(Br)cc1C(c1ccccc1F)=N[C@H]2CCC(=O)OC [Compound 15, methyl (S)-3-(8-bromo-6-(2-fluorophenyl)-1-(propylthio)-4H-benzo[f][1,2,4]triazolo[4,3-a][1,4]diazepin-4-yl)propionate] | 8.47 | 1.03 |  | 
12 | CCCSc1nnc2n1-c1ccc([N+](=O)[O-])cc1C(c1ccccc1F)=N[C@H]2CCC(=O)OC [Compound 16, methyl (S)-3-(8-nitro-6-(2-fluorophenyl)-1-(propylthio)-4H-benzo[f][1,2,4]triazolo[4,3-a][1,4]diazepin-4-yl)propionate] | 6.25 | 0.79 | 6.6 | 0.28
13 | COC(=O)CC[C@@H]1N=C(c2ccccc2F)c2cc(Cl)ccc2-n2c(SCCO)nnc21 [Compound 17, methyl (S)-3-(8-chloro-6-(2-fluorophenyl)-1-((2-hydroxyethyl)thio)-4H-benzo[f][1,2,4]triazolo[4,3-a][1,4]diazepin-4-yl)propionate] | 15.35 | 1.09 |  | 
14 | COC(=O)CC[C@@H]1N=C(c2ccccc2F)c2cc(Br)ccc2-n2c(SCCO)nnc21 [Compound 18, methyl (S)-3-(8-bromo-6-(2-fluorophenyl)-1-((2-hydroxyethyl)thio)-4H-benzo[f][1,2,4]triazolo[4,3-a][1,4]diazepin-4-yl)propionate] | 4.74 | 0.31 | 9.16 | 0.33
15 | COC(=O)CC[C@@H]1N=C(c2ccccc2F)c2cc([N+](=O)[O-])ccc2-n2c(SCCO)nnc21 [Compound 19, methyl (S)-3-(8-nitro-6-(2-fluorophenyl)-1-((2-hydroxyethyl)thio)-4H-benzo[f][1,2,4]triazolo[4,3-a][1,4]diazepin-4-yl)propionate] | 16.22 | 0.89 |  | 
16 | COC(=O)CC[C@@H]1N=C(c2ccccc2F)c2cc(Cl)ccc2-n2c(SCCN)nnc21 [Compound 20, methyl (S)-3-(8-chloro-6-(2-fluorophenyl)-1-((2-aminoethyl)thio)-4H-benzo[f][1,2,4]triazolo[4,3-a][1,4]diazepin-4-yl)propionate] | 9.82 | 0.27 |  | 
17 | COC(=O)CC[C@@H]1N=C(c2ccccc2F)c2cc(Br)ccc2-n2c(SCCN)nnc21 [Compound 21, methyl (S)-3-(8-bromo-6-(2-fluorophenyl)-1-((2-aminoethyl)thio)-4H-benzo[f][1,2,4]triazolo[4,3-a][1,4]diazepin-4-yl)propionate] | 2.83 | 0.35 | 6.4 | 0.2
18 | COC(=O)CC[C@@H]1N=C(c2ccccc2F)c2cc([N+](=O)[O-])ccc2-n2c(SCCN)nnc21 [Compound 22, methyl (S)-3-(8-nitro-6-(2-fluorophenyl)-1-((2-aminoethyl)thio)-4H-benzo[f][1,2,4]triazolo[4,3-a][1,4]diazepin-4-yl)propionate] | 6.53 | 0.58 |  | 
19 | CCSc1nnc2n1-c1ccc(Br)cc1C(c1ccccc1Cl)=N[C@H]2CCC(=O)OC [Compound 27, methyl (S)-3-(8-bromo-6-(2-chlorophenyl)-1-(ethylthio)-4H-benzo[f][1,2,4]triazolo[4,3-a][1,4]diazepin-4-yl)propionate] | 5.93 | 0.35 |  | 
20 | CCSc1nnc2n1-c1ccc([N+](=O)[O-])cc1C(c1ccccc1Cl)=N[C@H]2CCC(=O)OC [Compound 28, methyl (S)-3-(8-nitro-6-(2-chlorophenyl)-1-(ethylthio)-4H-benzo[f][1,2,4]triazolo[4,3-a][1,4]diazepin-4-yl)propionate] |  |  | 4.24 | 0.46
